In patent publication US10947201B2, “Certain chemical entities, compositions, and methods” (NEUPHARMA, INC., priority 2015, dated 2021):

Legend:
[1] = biological target: T1, EGFR (ErbB1) (Homo sapiens, UniProt P00533); assay: Z'-LYTE kinase inhibition assay (Invitrogen), EGFR; type: biochemical; details: for inhibition at 0.1 µM: compound at 100 nM, [ATP] = Km
T1 construct: purchased Invitrogen
Experimental: (§1) Inhibitory activities of compounds against BTK, EGFR and EGFR mutants (EGFR L858R/T790M) were measured by Invitrogen using Z′-LYTE® Method as briefly described in the following.
(§2) Test Compounds are screened in 1% DMSO (final) in the well. For 10 point titrations, 3-fold serial dilutions are conducted from the starting concentration. All ATP Solutions are diluted to a 4× working concentration in Kinase Buffer (50 mM HEPES pH 7.5, 0.01% BRIJ-35, 10 mM MgCl2, 1 mM EGTA). Peptide/Kinase Mixtures are diluted to a 2× working concentration in the appropriate Kinase Buffers as described below.
(i) Peptide/Kinase Mixtures for measurement of EGFR (ErbB1):
The 2×EGFR (ErbB1)/Tyr 04 mixture is prepared in 50 mM HEPES pH 7.5, 0.01% BRIJ-35, 10 mM MgCl2, 4 mM MnCl2, 1 mM EGTA, 2 mMDTT. The final 10 μL Kinase Reaction consists of 1.1-5.25 ng EGFR (ErbB1) and 2 μM Tyr 04 in 50 mM HEPES pH 7.5, 0.01% BRIJ-35, 10 mM MgCl2, 2 mM MnCl2, 1 mM EGTA, 1 mM DTT. After the 1 hour Kinase Reaction incubation, 5 μL of a 1:64 dilution of DevelopmentReagent B is added.
(§3) Reaction starts by 30-second shaking of mixture consisting of 2.5 μL 4× test compound, 5 μL 2× kinase reaction mixture and 2.5 μL 4×ATP Solution on Bar-coded Corning, low volume NBS, black 384-well plate (Corning Cat. #3676). Then the mixture is incubated for 60-minute at room temperature for the kinase reaction, followed by addition of 5 μL of a 1:1024 dilution of development reagent A and 30-second plate shake. The mixture is then incubated for another 60-minute at room temperature for development reaction. Finally fluorescence is read by plate reader. […] The scale utilized in Tables 2 and 3 is as follows: ++ more than 50% inhibition and + less than 50% inhibition.
(§4) To determine IC50 of a compound against EGFR or EGFR mutants, a series of concentrations of the compound were tested for the inhibition. IC50 was calculated by plotting the concentration of compound vs the percentage of inhibition in treated wells using GraphPad Prism 5. […] The scale utilized in Table 4 is as follows: ++ less than 100 nM and + greater than 100 nM.

[2] = biological target: T2, EGFR (ErbB1) T790M L858R (Homo sapiens, UniProt P00533, L858R/T790M); assay: Z'-LYTE kinase inhibition assay (Invitrogen), EGFR L858R/T790M; type: biochemical; details: for inhibition at 0.1 µM: compound at 100 nM, [ATP] = Km
T2 construct: purchased Invitrogen
T2 sequence (P00533 25-1210 T790M/L858R): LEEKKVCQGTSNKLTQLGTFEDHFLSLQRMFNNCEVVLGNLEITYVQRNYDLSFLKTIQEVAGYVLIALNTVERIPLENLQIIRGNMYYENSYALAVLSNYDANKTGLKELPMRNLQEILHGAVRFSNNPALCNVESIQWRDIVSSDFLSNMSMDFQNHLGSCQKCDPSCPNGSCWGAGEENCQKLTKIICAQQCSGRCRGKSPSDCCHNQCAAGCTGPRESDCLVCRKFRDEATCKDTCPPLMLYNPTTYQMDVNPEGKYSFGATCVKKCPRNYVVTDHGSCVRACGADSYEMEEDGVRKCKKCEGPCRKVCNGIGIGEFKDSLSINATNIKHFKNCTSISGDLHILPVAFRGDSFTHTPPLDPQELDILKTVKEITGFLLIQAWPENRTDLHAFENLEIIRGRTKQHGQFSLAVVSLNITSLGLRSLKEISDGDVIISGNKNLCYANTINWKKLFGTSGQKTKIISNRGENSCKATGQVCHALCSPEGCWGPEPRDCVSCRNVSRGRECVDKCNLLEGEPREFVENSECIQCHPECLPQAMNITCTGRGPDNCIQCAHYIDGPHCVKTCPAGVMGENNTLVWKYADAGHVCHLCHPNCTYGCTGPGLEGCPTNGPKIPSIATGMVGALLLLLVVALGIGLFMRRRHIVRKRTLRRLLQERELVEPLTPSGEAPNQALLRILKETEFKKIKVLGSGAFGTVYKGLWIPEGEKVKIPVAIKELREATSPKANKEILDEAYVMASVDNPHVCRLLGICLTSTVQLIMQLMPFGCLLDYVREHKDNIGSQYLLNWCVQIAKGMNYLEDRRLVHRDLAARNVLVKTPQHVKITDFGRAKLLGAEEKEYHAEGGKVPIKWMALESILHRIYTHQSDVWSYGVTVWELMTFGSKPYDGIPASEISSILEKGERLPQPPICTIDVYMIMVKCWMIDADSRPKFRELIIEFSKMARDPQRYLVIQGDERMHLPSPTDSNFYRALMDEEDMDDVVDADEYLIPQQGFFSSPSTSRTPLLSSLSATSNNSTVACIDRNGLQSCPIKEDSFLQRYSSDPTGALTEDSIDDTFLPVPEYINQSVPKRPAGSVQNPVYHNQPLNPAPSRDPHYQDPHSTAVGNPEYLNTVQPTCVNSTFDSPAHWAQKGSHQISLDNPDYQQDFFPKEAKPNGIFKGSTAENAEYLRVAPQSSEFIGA
Experimental: as §1, §2
(iv) Peptide/Kinase Mixtures for measurement of EGFR (ErbB1) T790M L858R:
The 2×EGFR (ErbB1) T790M L858R/Tyr 04 mixture is prepared in 50 mM HEPES pH 6.5, 0.01% BRIJ-35, 10 mM MgCl2, 1 mM EGTA, 0.02% NaN3. The final 10 μL Kinase Reaction consists of 0.38-4.22 ng EGFR (ErbB1) T790M L858R and 2 μM Tyr 04 in 50 mM HEPES pH 7.0, 0.01% BRIJ-35, 10 mM MgCl2, 1 mM EGTA, 0.01% NaN3. After the 1 hour Kinase Reaction incubation, 5 μL of a 1:64 dilution of Development Reagent B is added.
as §3, §4

[3] = biological target: T3, BTK (Homo sapiens, UniProt Q06187); assay: Z'-LYTE kinase inhibition assay (Invitrogen), BTK; type: biochemical; details: for inhibition at 0.1 µM: compound at 100 nM, [ATP] = Km
T3 construct: purchased Invitrogen
T3 sequence (Q06187 whole entry): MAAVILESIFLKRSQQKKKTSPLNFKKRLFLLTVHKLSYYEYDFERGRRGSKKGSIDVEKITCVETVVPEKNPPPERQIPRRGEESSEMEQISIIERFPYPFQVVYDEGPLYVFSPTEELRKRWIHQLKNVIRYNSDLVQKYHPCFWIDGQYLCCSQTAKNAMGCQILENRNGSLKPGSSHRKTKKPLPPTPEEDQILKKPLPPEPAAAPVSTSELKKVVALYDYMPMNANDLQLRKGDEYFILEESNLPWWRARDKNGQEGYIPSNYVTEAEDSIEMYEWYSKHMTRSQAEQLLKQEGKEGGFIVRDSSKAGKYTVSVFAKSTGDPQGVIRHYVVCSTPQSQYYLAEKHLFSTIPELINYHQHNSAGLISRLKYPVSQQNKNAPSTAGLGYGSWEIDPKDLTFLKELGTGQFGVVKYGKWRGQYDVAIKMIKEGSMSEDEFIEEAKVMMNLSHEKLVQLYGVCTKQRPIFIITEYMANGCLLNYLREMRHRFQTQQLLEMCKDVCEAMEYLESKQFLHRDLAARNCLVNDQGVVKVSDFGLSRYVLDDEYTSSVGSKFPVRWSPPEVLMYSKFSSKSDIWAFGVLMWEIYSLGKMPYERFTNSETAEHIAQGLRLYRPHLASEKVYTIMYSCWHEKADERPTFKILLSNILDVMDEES
Experimental: as §1, §2
(v) Peptide/Kinase Mixtures for measurement of BTK:
The 2×BTK/Tyr 01 mixture is prepared in 50 mM HEPES pH 7.5, 0.01% BRIJ-35, 10 mM MgCl2, 1 mM EGTA. The final 10 μL Kinase Reaction consists of 1.04-10.4 ng BTK and 2 μM Tyr 01 in 50 mM HEPES pH 7.5, 0.01% BRIJ-35, 10 mM MgCl2, 1 mM EGTA. After the 1 hour Kinase Reaction incubation, 5 μL of a 1:256 dilution of Development Reagent B is added.
as §3, §4

[4] = tested on: A549 cells; assay: MTT cell growth inhibition assay, A549; type: cell-based; details: Homo sapiens, A549 cells (KRAS mutation), 72 h
Experimental: (§5) Inhibition of cell growth by compounds was measured using MTT assay (Mosmann, T., Journal of Immunological Methods, 1983, 65, 55-63). Tumor cell lines were purchased from ATCC (American Type Culture Collection, Manassas, Va.). All cell lines were maintained in RPMI 1640 (Hyclone) supplemented with 10% fetal bovine serum (FBS, Hyclone), glutamine (2 mM, Hyclone), and antibiotics (penicillin 100 U/mL and streptomycin 50 μg/mL) at 37° C. in a humidified atmosphere of 5% CO2 in air. Taxol (as a positive control, Sigma) and compounds were dissolved in DMSO (Sigma), and the final concentration of DMSO in the medium was 1%. Tumor cells were plated in 96-well plates at densities of about 4000 cells/well of a 96-well plate and allowed to adhere/grow for 24 h. They were then treated with various concentrations of drug for 72 h. 3-(4,5-Dimethylthiazol-2-yl)-2,5-diphenyltetrazolium bromide (MTT, Sigma) was used to determine the number of viable cells at the time of compound addition and the number of cells remaining after 72 h compound exposure. The number of cells remaining after 72 h was compared to the number of viable cells at the time of compound addition by measuring the absorbance at 570 nm, allowing for the calculation of growth inhibition.
(§6) All concentrations of compounds were tested in triplicate and controls were averaged over 4 wells. IC50 was calculated by plotting the concentration of compound vs the percentage of inhibition in treated wells using GraphPad Prism 5.
(§7) Tables 5 show IC50 values of several compounds of the invention in A549, A431, H1299, and H1975 human cancer cells. A549 cells have a mutation on KRAS, H3255 cells have L858R mutation, and H1975 cells have double EGFR mutations (L858R/T790M). The scale utilized in Table 5 is as follows: +++ less than 100 nM; ++ between 100 nM and 500 nM; and + greater than 500 nM.

[5] = tested on: A431 cells; assay: MTT cell growth inhibition assay, A431; type: cell-based; details: Homo sapiens, A-431, 72 h
Experimental: as §5, §6, §7

[6] = tested on: H1975 cells; assay: MTT cell growth inhibition assay, H1975; type: cell-based; details: Homo sapiens, NCI-H1975, H1975 cells (EGFR L858R/T790M), 72 h
Experimental: as §5, §6, §7

[7] = tested on: H3255 cells; assay: MTT cell growth inhibition assay, H3255; type: cell-based; details: Homo sapiens, NCI-H3255, H3255 cells (L858R mutation), 72 h
Experimental: as §5, §6, §7

T1 sequence (P00533 25-1210): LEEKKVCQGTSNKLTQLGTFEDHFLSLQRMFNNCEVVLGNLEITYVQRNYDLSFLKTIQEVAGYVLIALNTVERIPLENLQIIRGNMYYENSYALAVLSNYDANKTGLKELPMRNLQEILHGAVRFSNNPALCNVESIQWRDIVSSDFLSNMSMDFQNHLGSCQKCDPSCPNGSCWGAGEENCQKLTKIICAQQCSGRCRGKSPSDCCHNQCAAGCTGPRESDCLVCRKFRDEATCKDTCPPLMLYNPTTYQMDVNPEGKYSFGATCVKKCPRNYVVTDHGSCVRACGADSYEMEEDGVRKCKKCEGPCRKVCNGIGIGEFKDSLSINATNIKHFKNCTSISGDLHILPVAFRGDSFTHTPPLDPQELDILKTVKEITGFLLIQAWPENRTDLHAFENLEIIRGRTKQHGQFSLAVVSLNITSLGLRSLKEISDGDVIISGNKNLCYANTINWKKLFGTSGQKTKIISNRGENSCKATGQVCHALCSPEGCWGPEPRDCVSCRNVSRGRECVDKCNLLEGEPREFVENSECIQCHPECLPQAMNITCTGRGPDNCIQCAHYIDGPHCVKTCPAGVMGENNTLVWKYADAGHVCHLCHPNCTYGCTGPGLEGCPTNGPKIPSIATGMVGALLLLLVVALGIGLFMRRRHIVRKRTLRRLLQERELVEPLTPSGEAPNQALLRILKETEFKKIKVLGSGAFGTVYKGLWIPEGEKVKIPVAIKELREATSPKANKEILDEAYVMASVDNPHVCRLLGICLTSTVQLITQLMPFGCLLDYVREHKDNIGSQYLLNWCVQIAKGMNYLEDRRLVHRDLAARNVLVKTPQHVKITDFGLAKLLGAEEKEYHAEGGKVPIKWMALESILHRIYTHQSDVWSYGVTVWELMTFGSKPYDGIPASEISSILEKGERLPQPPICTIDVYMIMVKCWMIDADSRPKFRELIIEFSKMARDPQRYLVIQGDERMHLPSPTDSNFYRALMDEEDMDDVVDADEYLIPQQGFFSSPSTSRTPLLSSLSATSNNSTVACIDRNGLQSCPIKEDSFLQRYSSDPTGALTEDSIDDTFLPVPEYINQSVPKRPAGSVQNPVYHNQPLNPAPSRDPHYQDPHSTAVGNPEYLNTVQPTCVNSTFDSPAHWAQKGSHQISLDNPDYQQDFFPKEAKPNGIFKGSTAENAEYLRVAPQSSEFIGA

IC50 [1] [µM]	IC50 [2] [µM]	IC50 [3] [µM]	IC50 [4] [µM]	IC50 [5] [µM]	IC50 [6] [µM]	inhibition at 0.0137 µM ([2]; compound at 13.7 nM, 10 μM of ATP) [%]	inhibition at 0.1 µM [2] [%]	inhibition at 0.1 µM [3] [%]	inhibition at 0.1 µM [1] [%]	IC50 [7] [µM]	SMILES
> 0.1	> 0.1	> 0.1	> 0.5	0.1 to 0.5	< 0.1						C=CC(=O)Nc1cc(Nc2ncc3cccc(Cl)c3n2)ccc1N(C)CCN(C)C [Example C002, N-(5-((8-chloroquinazolin-2-yl)amino)-2-((2-(dimethylamino)ethyl)(methyl)amino)phenyl) acrylamide]
			> 0.5	0.1 to 0.5	< 0.1	< 50	< 50	< 50			C=CC(=O)Nc1cc(Nc2ncc3cccc(OC)c3n2)ccc1N(C)CCN(C)C [Example C003, N-(2-((2-(dimethylamino)ethyl)(methyl)amino)-5-((8-methoxyquinazolin-2-yl)amino)phenyl)acrylamide]
> 0.1	< 0.1	< 0.1	< 0.1	< 0.1	< 0.1		> 50	> 50	> 50	< 0.1	C=CC(=O)Nc1cc(Nc2ncc3cccc(-c4ccccc4)c3n2)ccc1N(C)CCN(C)C [Example C004, N-(2-((2-(dimethylamino)ethyl)(methyl)amino)-5-((8-phenylquinazolin-2-yl)amino)phenyl)acrylamide]
> 0.1	< 0.1		0.1 to 0.5	< 0.1	< 0.1		> 50	> 50	> 50	< 0.1	C=CC(=O)Nc1cc(Nc2ncc3cccc(-c4cccc(Cl)c4)c3n2)ccc1N(C)CCN(C)C [Example C005, N-(5-((8-(3-chlorophenyl)quinazolin-2-yl)amino)-2-((2-(dimethylamino)ethyl)(methyl)amino)phenyl) acrylamide]
			0.1 to 0.5		< 0.1		> 50	> 50	> 50		C=CC(=O)Nc1cc(Nc2ncc3cccc(-c4cccc(Cl)c4)c3n2)c(OC)cc1N(C)CCN(C)C [Example C017, N-(5-((8-(3-chlorophenyl)quinazolin-2-yl)amino)-2-((2-(dimethylamino)ethyl)(methyl)amino)-4-methoxyphenyl)acrylamide]
			0.1 to 0.5		< 0.1		> 50	> 50	> 50		C=CC(=O)Nc1cc(Nc2ncc3cccc(-c4cccc(F)c4)c3n2)c(OC)cc1N(C)CCN(C)C [Example C018, N-(2-((2-(dimethylamino)ethyl)(methyl)amino)-5-((8-(3-fluorophenyl)quinazolin-2-yl)amino)-4-methoxyphenyl)acrylamide]
			0.1 to 0.5		< 0.1		> 50	> 50	> 50		C=CC(=O)Nc1cc(Nc2ncc3cccc(-c4cccc(F)c4)c3n2)c(OC)cc1OC1CCN(C)C1 (stereo not drawn) [Example C019, N-(5-((8-(3-fluorophenyl)quinazolin-2-yl)amino)-4-methoxy-2-((1-methylpyrrolidin-3-yl)oxy)phenyl)acrylamide]
			0.1 to 0.5		< 0.1		> 50	> 50	> 50		C=CC(=O)Nc1cc(Nc2ncc3cccc(-c4cccc(Cl)c4)c3n2)c(OC)cc1OC1CCN(C)C1 (stereo not drawn) [Example C020, N-(5-((8-(3-chlorophenyl)quinazolin-2-yl)amino)-4-methoxy-2-((1-methylpyrrolidin-3-yl)oxy)phenyl)acrylamide]
			0.1 to 0.5	< 0.1	< 0.1		> 50	> 50	< 50		C=CC(=O)Nc1cc(Nc2ncc3cccc(-c4cncc(F)c4)c3n2)ccc1N(C)CCN(C)C [Example C022, N-(2-((2-(dimethylamino)ethyl)(methyl)amino)-5-((8-(5-fluoropyridin-3-yl)quinazolin-2-yl)amino)phenyl)acrylamide]
			> 0.5	< 0.1	< 0.1			> 50			C=CC(=O)Nc1cc(Nc2ncc3cccc(-c4cccc(F)c4)c3n2)c(OC)cc1N1CCC(N(C)C)C1 (stereo not drawn) [Example C023, N-(2-(3-(dimethylamino)pyrrolidin-1-yl)-5-((8-(3-fluorophenyl)quinazolin-2-yl)amino)-4-methoxyphenyl)acrylamide]
			0.1 to 0.5	< 0.1	< 0.1			> 50			C=CC(=O)Nc1cc(Nc2ncc3cccc(-c4cccc(F)c4)c3n2)ccc1N1CCC(N(C)C)C1 (stereo not drawn) [Example C024, N-(2-(3-(dimethylamino)pyrrolidin-1-yl)-5-((8-(3-fluorophenyl)quinazolin-2-yl)amino)phenyl)acrylamide]
			0.1 to 0.5	< 0.1	< 0.1			> 50			C=CC(=O)Nc1cc(Nc2ncc3cccc(-c4cccc(F)c4)c3n2)ccc1N1CC(N(C)C)C1 [Example C025, N-(2-(3-(dimethylamino)azetidin-1-yl)-5-((8-(3-fluorophenyl)quinazolin-2-yl)amino)phenyl)acrylamide]
